From ChEMBL document CHEMBL1201862, “PubChem BioAssay data set” (2004)
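These data come from cells grown in 96-well plates and exposed to compound for 48 hours at five concentrations. At the GI50, growth is halved.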 Active and inactive are the calls of the source. Rule as the data show it: active = GI50 up to about 1.1 µM and inactive = higher.

Key:
Assay in all cases: NCI anticancer screen, dose series, 48 h
LOX IMVI = test system: LOX IMVI
TK-10 = test system: TK-10
NCI-H226 = test system: NCI-H226
A549 = test system: A549
MDA-MB-231 = test system: MDA-MB-231
HCT-116 = test system: HCT-116
MDA-MB-435 = test system: MDA-MB-435
RPMI-8226 = test system: RPMI-8226
KM12 = test system: KM12
UACC-257 = test system: UACC-257
UO-31 = test system: UO-31
BT-549 = test system: BT-549
NCI/ADR-RES = test system: NCI/ADR-RES
SK-MEL-28 = test system: SK-MEL-28
EKVX = test system: EKVX
SN12C = test system: SN12C
OVCAR-4 = test system: OVCAR-4
OVCAR-5 = test system: OVCAR-5
NCI-H522 = test system: NCI-H522
T47D = test system: T47D
SW-620 = test system: SW-620
NCI-H23 = test system: NCI-H23
HCC 2998 = test system: HCC 2998
DU-145 = test system: DU-145
Hs-578T = test system: Hs-578T
ACHN = test system: ACHN
MDA-N = test system: MDA-N
SR = test system: SR
COLO 205 = test system: COLO 205
HCT-15 = test system: HCT-15
CCRF-CEM = test system: CCRF-CEM
NCI-H460 = test system: NCI-H460
SF-295 = test system: SF-295
SNB-75 = test system: SNB-75
MCF7 = test system: MCF7
RXF 393 = test system: RXF 393
OVCAR-8 = test system: OVCAR-8
IGROV-1 = test system: IGROV-1
SF-268 = test system: SF-268
HOP-92 = test system: HOP-92
SNB-19 = test system: SNB-19
OVCAR-3 = test system: OVCAR-3
SK-OV-3 = test system: SK-OV-3
CAKI-1 = test system: CAKI-1
SK-MEL-5 = test system: SK-MEL-5
UACC-62 = test system: UACC-62
K562 = test system: K562
HOP-62 = test system: HOP-62
U-251 = test system: U-251
MOLT-4 = test system: MOLT-4
SF-539 = test system: SF-539
786-0 = test system: 786-0
PC-3 = test system: PC-3
SK-MEL-2 = test system: SK-MEL-2
HT-29 = test system: HT-29

SMILES: CCOC(=O)/C=C(/C(=O)OCC)n1ccc(=O)n(Cc2cnnn2CCCCOC(C)=O)c1=O
- GI50 (LOX IMVI): > 100 µM (inactive)
- GI50 (TK-10): 32.8 µM (inactive)
- GI50 (NCI-H226): > 100 µM (inactive)
- GI50 (A549): > 100 µM (inactive)
- GI50 (MDA-MB-231): > 100 µM (inactive)
- GI50 (HCT-116): > 100 µM (inactive)
- GI50 (MDA-MB-435): > 100 µM (inactive)
- GI50 (RPMI-8226): 59.2 µM (inactive)
- GI50 (KM12): > 100 µM (inactive)
- GI50 (UACC-257): > 100 µM (inactive)
- GI50 (UO-31): > 100 µM (inactive)
- GI50 (BT-549): 60.3 µM (inactive)
- GI50 (NCI/ADR-RES): > 100 µM (inactive)
- GI50 (SK-MEL-28): > 100 µM (inactive)
- GI50 (EKVX): 63.8 µM (inactive)
- GI50 (SN12C): > 100 µM (inactive)
- GI50 (OVCAR-4): > 100 µM (inactive)
- GI50 (OVCAR-5): > 100 µM (inactive)
- GI50 (NCI-H522): 20.7 µM (inactive)
- GI50 (T47D): > 100 µM (inactive)
- GI50 (SW-620): 20.1 µM (inactive)
- GI50 (NCI-H23): > 100 µM (inactive)
- GI50 (HCC 2998): > 100 µM (inactive)
- GI50 (DU-145): > 100 µM (inactive)
- GI50 (Hs-578T): > 100 µM (inactive)
- GI50 (ACHN): 51.2 µM (inactive)
- GI50 (MDA-N): > 100 µM (inactive)
- GI50 (SR): 27.9 µM (inactive)
- GI50 (COLO 205): 19.1 µM (inactive)
- GI50 (HCT-15): > 10 µM
- GI50 (CCRF-CEM): 2.2 µM (inactive)
- GI50 (NCI-H460): > 100 µM (inactive)
- GI50 (SF-295): > 100 µM (inactive)
- GI50 (SNB-75): > 100 µM (inactive)
- GI50 (MCF7): 52 µM (inactive)
- GI50 (RXF 393): > 100 µM (inactive)
- GI50 (OVCAR-8): > 100 µM (inactive)
- GI50 (IGROV-1): > 100 µM (inactive)
- GI50 (SF-268): > 100 µM (inactive)
- GI50 (HOP-92): 0.0305 µM (active)
- GI50 (SNB-19): > 100 µM (inactive)
- GI50 (OVCAR-3): > 100 µM (inactive)
- GI50 (SK-OV-3): > 100 µM (inactive)
- GI50 (CAKI-1): 30.2 µM (inactive)
- GI50 (SK-MEL-5): > 100 µM (inactive)
- GI50 (UACC-62): > 100 µM (inactive)
- GI50 (K562): 70.1 µM (inactive)
- GI50 (HOP-62): > 100 µM (inactive)
- GI50 (U-251): > 100 µM (inactive)
- GI50 (MOLT-4): 20.4 µM (inactive)
- GI50 (SF-539): 36.6 µM (inactive)
- GI50 (786-0): 18.5 µM (inactive)
- GI50 (PC-3): > 100 µM (inactive)
- GI50 (SK-MEL-2): > 100 µM (inactive)
- GI50 (HT-29): > 100 µM (inactive)
